The text below walks through data of patent publication US20250066370A1, “BICYCLIC TRIAZINE DERIVATIVES FOR THE TREATMENT OF CANCER” (DEUTSCHES KREBSFORSCHUNGSZENTRUM, priority 2022, published 2025).

The test system of test [1] is MDA-MB-231, human breast cancer cells. As to the kind of experiment: Proliferation assay MDA-MB-231 (crystal violet). In kind it is cell-based. The conditions noted are these: 96 h, MDA-MB-231 parental cells, 4 days, median, read-out: Prolif-MDA MB-231, IC50 - [mol/l] (median). On the procedure: Human tumour cells were originally obtained from the American Type Culture Collection (ATCC), or from the Deutsche Sammlung von Mikroorganismen und Zellkulturen (DSMZ, German Collection of Microorganisms and Cell Cultures). Cultivated tumour cells (CAL-120, human breast adenocarcinoma cells, DSMZ ACC-459; MDA-MB-231, human breast cancer cells, ATCC HTB-26) were plated at a density of 4,000 cells/well in a 96-well multitier plate in 200 microL of their respective growth medium supplemented 10% fetal calf serum. After 24 hours, the cells of one plate (zero-point plate) were stained with crystal violet (see below), while the medium of the other plates was supplemented with the test substances in various concentrations (0 micromol/L, as well as in the range of 0.01-10 micromol/L; the final concentration of the solvent dimethyl sulfoxide was adjusted to 0.1%) using a Tecan HP D300 Digital Dispenser. The cells were incubated for 4 days in the presence of test substances. Cell proliferation was determined by staining the cells with crystal violet: the cells were fixed by adding 20 microL/measuring point of an 11% glutaric aldehyde solution for 15 minutes at room temperature. After three washing cycles of the fixed cells with water, the plates were dried at room temperature. The cells were stained by adding 100 microL/measuring point of a 0.1% crystal violet solution (pH 3.0). After three washing cycles of the stained cells with water, the plates were dried at room temperature. The dye was dissolved by adding 100 microL/measuring point of a 10% acetic acid solution. The extinction was determined by photometry at a wavelength of 595 nm. The change of cell number, in percent, was calculated by normalization of the measured values to the extinction values of the zero-point plate (=0%) and the extinction of the untreated (0 μM) cells (=100%). The IC50 values (inhibitory concentration at 50% of maximal effect) were determined by means of a 4 parameter fit.

Another test deals with CDK12 (Homo sapiens (Human), UniProt Q9NYV4). Briefly: CDK12 nuclear protein level: immunofluorescence/high content analysis in CAL-120 cells. The format is cell-based. The conditions noted are these: 24 h, nuclear CDK12 staining intensity, median, read-out: CDK12 degradation IF, DC50 - [mol/l] (median). On the procedure:
In the context of the present invention, the term “DC50 CDK12” refers to the DC50 values obtained according to the assay described in this section (7) herein below, i.e. the DC50 values for the degradation of CDK12.
CAL-120 human breast cancer cells (DSMZ ACC 459) are seeded in 1536-well microtiter plates (800 cells per well) containing 50 nanoL of compounds in Dose-Response. Control wells received DMSO or Example 4. Plates are then incubated for 24 h at 37° C. in an humidified incubator and fixed with 4% PFA for 10 min. Then immunofluorescence (IF) against CDK12 (CellSignalling CDK12 Antibody #11973, rabbit, 1:100 dilution) is performed using standard IF protocols. Cells are then stained with Hoechst 33342 (Life Technologies, H-1399, 0.1 microg/ml) and imaged on an automated confocal microscopy system (e.g. Perkin Elmer Opera Phenix). Nuclear and cytoplasmic intensity as well as the nuclear/cytoplasmic intensity ratio is determined by automated image analysis using custom generated scripts (MetaXpress). Data is then transferred to Genedata Screener software, normalized to DMSO and control and DC50 values (degrading concentration to achieve 50% reduction of nuclear CDK12 staining intensity relative to controls) are reported.

In another test the target is CDK12/CyclinK (Homo sapiens (Human), UniProt Q9NYV4). As to the kind of experiment: CDK12/CycK high ATP kinase assay (TR-FRET). In kind it is biochemical. Particulars: for IC50: 2 mM ATP (high ATP), median, read-out: CDK12/CyclinK, 2 mM ATP (high ATP), IC50 - [mol/l] (median); for (IC50 CDK12 high ATP) to (Degradation DC50 CDK12) ratio: IC50 CDK12 at 2 mM ATP divided by CDK12 degradation DC50 (IF, CAL-120). On the procedure:
In the context of the present invention, the term “IC50 CDK12 hATP” refers to the IC50 values obtained according to the assay described in this section (2.2) herein below, i.e. the IC50 values for the inhibition of CDK12 at high (2 mM) ATP.
CDK12/CycK-inhibitory activity of compounds of the present invention at 2 millimol/L adenosine-tri-phosphate (ATP) was quantified employing the TR-FRET (TR-FRET=Time Resolved Fluorescence Energy Transfer) based CDK12/CycK activity inhibition assay as described in the following paragraphs.
A complex of human recombinant CDK12 and human recombinant CycK (both N-terminally His-tagged, expression and purification as described above) was used as enzyme. As substrate for the kinase reaction biotinylated peptide biotin-Ahx-KFELLPTPPLSPSRRSGL (C-terminus in amid form) was used which can be purchased e.g. form the company Biosyntan (Berlin-Buch, Germany).
For the assay 50 nanoL of a 100 fold concentrated solution of the test compound in DMSO was pipetted into either a black low volume 384 well microtiter plate or a black 1536 well microtiter plate (both Greiner Bio-One, Frickenhausen, Germany), 2 microL of a solution of CDK12/CycK in aqueous assay buffer [25 millimol/L HEPES pH 7.5, 20 millimol/L MgCl2, 5 millimol/L β-glycerophosphate, 2 millimol/L EGTA, 1.0 millimol/L dithiothreitol, 0.01% (v/v) Nonidet-P40 (Sigma), 0.01% (w/v) bovine serum albumin] were added and the mixture was incubated for 15 min at 22° C. to allow pre-binding of the test compounds to the enzyme before the start of the kinase reaction. Then the kinase reaction was started by the addition of 3 microL of a solution ATP (3.33 millimol/L=>final conc. in the 5 microL assay volume is 2 millimol/L) and substrate (1.67 micromol/L=>final conc. in the 5 microL assay volume is 1 micromol/L) in assay buffer and the resulting mixture was incubated for a reaction time of 60 min at 22° C. The concentration of CDK12/CycK was adjusted depending of the activity of the enzyme lot and was chosen appropriate to have the assay in the linear range, typical concentrations were about 0.75 nanomol/L. The reaction was stopped by the addition of 3 microL of a solution of TR-FRET detection reagents (125 nanomol/L streptavidine-XL665 [Cisbio Bioassays, Codolet, France] and 0.67 nanomol/L anti-Phospho-c-Myc (Ser 62) (E1J4K)-antibody from Cell Signalling [#13748] and 2 nanomol/L LANCE EU-W1024 labeled anti-rabbit IgG antibody [Perkin-Elmer, product no. 0083]) in an aqueous EDTA-solution (133 millimol/L EDTA, 0.27% (w/v) bovine serum albumin in 66.7 millimol/L HEPES pH 7.5).
The resulting mixture was incubated 1 h at 22° C. to allow the formation of complex between the phosphorylated biotinylated peptide and the detection reagents. Subsequently the amount of phosphorylated substrate was evaluated by measurement of the resonance energy transfer from the Eu-chelate to the streptavidine-XL. Therefore, the fluorescence emissions at 620 nm and 665 nm after excitation at 350 nm was measured in a TR-FRET reader, e.g. a Pherastar FS (BMG Labtechnologies, Offenburg, Germany) or a Viewlux (Perkin-Elmer). The ratio of the emissions at 665 nm and at […] was taken as the measure for the amount of phosphorylated substrate. The data were normalised (enzyme reaction without inhibitor=0% inhibition, all other assay components but no enzyme=100% inhibition).
(Time-resolved FRET reads energy transfer from a long-lived donor to a nearby acceptor.)

A value given as a limit tells only on which side of the number the result lay.

CDK12, sequence (Q9NYV4 whole entry): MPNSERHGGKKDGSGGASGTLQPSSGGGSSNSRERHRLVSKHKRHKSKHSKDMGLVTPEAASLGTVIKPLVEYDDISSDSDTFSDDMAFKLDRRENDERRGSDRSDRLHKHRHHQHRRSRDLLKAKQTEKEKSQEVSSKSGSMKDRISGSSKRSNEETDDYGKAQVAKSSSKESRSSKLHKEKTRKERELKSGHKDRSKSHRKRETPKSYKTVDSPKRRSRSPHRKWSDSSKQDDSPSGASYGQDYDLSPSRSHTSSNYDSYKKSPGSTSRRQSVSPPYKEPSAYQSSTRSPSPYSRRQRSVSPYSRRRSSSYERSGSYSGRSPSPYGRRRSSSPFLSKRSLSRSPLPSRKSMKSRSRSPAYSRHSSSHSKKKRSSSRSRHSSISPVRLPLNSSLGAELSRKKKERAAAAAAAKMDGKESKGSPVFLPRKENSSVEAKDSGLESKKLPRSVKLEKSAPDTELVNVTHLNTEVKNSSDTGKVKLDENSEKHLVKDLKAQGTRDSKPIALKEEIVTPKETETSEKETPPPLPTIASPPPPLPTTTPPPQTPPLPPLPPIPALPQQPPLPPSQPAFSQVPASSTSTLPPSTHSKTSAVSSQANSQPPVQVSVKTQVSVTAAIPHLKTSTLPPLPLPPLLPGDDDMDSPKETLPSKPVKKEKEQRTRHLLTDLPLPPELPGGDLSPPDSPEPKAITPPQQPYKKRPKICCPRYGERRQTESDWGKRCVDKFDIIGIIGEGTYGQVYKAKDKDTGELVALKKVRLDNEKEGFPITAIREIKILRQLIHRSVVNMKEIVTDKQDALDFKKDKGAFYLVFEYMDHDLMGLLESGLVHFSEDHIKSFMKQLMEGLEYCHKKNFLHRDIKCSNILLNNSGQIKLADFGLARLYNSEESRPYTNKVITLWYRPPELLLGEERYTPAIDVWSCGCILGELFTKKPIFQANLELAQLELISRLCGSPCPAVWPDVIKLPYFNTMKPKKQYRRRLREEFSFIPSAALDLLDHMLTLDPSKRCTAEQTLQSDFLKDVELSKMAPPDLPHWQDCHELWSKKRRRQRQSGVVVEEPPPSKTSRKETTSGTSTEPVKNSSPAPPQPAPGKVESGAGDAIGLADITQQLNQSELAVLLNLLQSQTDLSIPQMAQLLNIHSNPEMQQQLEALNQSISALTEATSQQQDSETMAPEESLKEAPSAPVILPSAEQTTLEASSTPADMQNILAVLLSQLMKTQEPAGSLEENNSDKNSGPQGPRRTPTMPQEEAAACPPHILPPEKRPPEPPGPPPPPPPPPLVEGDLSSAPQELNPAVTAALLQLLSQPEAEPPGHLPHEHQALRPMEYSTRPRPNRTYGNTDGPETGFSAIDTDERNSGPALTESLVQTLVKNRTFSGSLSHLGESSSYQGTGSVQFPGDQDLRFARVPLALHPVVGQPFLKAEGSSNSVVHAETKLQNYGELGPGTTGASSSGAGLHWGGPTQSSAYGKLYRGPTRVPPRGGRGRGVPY
CDK12, sequence (O75909 whole entry partner): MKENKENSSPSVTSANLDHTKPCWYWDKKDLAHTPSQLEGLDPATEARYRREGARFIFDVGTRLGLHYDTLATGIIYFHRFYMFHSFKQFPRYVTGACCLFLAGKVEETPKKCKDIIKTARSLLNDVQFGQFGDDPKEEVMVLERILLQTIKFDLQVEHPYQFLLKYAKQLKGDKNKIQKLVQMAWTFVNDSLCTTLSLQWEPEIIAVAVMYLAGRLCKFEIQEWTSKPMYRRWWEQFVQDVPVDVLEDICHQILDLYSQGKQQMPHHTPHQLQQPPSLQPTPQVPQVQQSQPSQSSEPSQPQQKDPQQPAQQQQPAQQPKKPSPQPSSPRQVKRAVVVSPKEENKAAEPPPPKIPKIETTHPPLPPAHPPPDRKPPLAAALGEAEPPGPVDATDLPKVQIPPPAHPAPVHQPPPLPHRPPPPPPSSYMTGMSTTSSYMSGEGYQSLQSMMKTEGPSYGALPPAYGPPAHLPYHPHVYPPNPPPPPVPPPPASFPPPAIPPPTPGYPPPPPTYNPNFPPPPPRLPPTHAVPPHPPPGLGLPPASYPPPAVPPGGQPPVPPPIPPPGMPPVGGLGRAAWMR
CDK12/CyclinK, sequence (Q9NYV4 other isoform, or with tags, fused parts or gaps): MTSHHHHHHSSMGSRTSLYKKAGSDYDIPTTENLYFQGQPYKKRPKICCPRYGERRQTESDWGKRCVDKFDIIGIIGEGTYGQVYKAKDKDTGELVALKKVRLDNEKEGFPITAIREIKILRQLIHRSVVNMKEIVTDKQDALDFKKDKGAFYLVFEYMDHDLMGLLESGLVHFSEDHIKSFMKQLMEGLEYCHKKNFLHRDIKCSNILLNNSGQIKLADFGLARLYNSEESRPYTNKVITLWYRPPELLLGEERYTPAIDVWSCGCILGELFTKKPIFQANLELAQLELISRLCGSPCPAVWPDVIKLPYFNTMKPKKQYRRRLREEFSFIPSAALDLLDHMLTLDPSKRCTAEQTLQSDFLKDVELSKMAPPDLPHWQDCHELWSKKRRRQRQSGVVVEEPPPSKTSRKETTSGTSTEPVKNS
CDK12/CyclinK, sequence (O75909 other isoform, or with tags, fused parts or gaps partner): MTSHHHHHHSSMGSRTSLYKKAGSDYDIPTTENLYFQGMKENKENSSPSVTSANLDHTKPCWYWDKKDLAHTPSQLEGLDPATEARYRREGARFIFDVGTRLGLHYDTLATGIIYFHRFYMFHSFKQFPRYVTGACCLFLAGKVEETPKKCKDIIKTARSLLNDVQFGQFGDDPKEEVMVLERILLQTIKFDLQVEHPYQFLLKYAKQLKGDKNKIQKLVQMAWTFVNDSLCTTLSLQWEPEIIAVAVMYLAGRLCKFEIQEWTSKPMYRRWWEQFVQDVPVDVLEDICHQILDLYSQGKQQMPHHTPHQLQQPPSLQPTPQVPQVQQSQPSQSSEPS

Consider `COc1ccc(-c2nnc(CNc3nc(N4CCOCC4)nn4c(C(F)(F)F)cnc34)[nH]2)cn1` [Example 18, N-{[5-(6-methoxypyridin-3-yl)-4H-1,2,4-triazol-3-yl]methyl}-2-(morpholin-4-yl)-7-(trifluoromethyl)imidazo[2,1-f][1,2,4]triazin-4-amine], for which the IC50 in test [1] is 72.1 nM. Further, the DC50 on CDK12 is more than 1000 nM.
As for `FC(F)(F)c1ccc(-c2cnc(CNc3nc(N4CCOCC4)nc4c(C(F)(F)F)cnn34)[nH]2)cc1` [Example 9, 2-(morpholin-4-yl)-8-(trifluoromethyl)-N-({5-[4-(trifluoromethyl)phenyl]-1H-imidazol-2-yl}methyl)pyrazolo[1,5-a][1,3,5]triazin-4-amine], at CDK12/CyclinK, the IC50 is 9.21 nM and the “(IC50 CDK12 high ATP) to (Degradation DC50 CDK12) ratio” value was 9.69E−03. In test [1], the IC50 was determined as 190 nM. At CDK12, the DC50 was 950 nM.
Turning to `FC(F)(F)c1ccc(-c2cnc(CNc3nc(N4CCOCC4)nn4c(C(F)(F)F)cnc34)[nH]2)cc1` [Example 7, 2-(morpholin-4-yl)-7-(trifluoromethyl)-N-({5-[4-(trifluoromethyl)phenyl]-1H-imidazol-2-yl}methyl)imidazo[2,1-f][1,2,4]triazin-4-amine], on CDK12/CyclinK, the IC50 stood at 26.3 nM and the “(IC50 CDK12 high ATP) to (Degradation DC50 CDK12) ratio” value turned out to be 0.04. Moreover, in test [1], the IC50 was 90.5 nM. Also, at CDK12, the DC50 came to 671 nM.
`FC(F)(F)c1ccc(-c2nnc(CNc3nc(N4CCOCC4)nc4c(Br)cnn34)[nH]2)cc1` [Example 1, 8-bromo-2-(morpholin-4-yl)-N-({5-[4-(trifluoromethyl)phenyl]-4H-1,2,4-triazol-3-yl}methyl)pyrazolo[1,5-a][1,3,5]triazin-4-amine]: on CDK12/CyclinK, the IC50 is 1830 nM and the “(IC50 CDK12 high ATP) to (Degradation DC50 CDK12) ratio” value stood at 0.77. Besides, on CDK12, the DC50 is 2380 nM.
For the compound `COc1ccc(-c2nnc(CNc3nc(N4CCOCC4)nc4c(C(F)(F)F)cnn34)[nH]2)cn1` [Example 15, N-{[5-(6-methoxypyridin-3-yl)-4H-1,2,4-triazol-3-yl]methyl}-2-(morpholin-4-yl)-8-(trifluoromethyl)pyrazolo[1,5-a][1,3,5]triazin-4-amine], at CDK12/CyclinK, the IC50 worked out at 526 nM and the “(IC50 CDK12 high ATP) to (Degradation DC50 CDK12) ratio” value was less than 0.53. In addition, the IC50 in test [1] came to 259 nM. Further, the DC50 at CDK12 was more than 1000 nM.
The like results for `FC(F)(F)Oc1ccc(-c2cnc(CNc3nc(N4CCOCC4)nc4c(Br)cnn34)[nH]2)cc1` [Example 4, 8-bromo-2-(morpholin-4-yl)-N-({5-[4-(trifluoromethoxy)phenyl]-1H-imidazol-2-yl}methyl)pyrazolo[1,5-a][1,3,5]triazin-4-amine] were, in that order, 34.8 nM, less than 0.03, 123 nM and more than 1000 nM.
For the compound `COc1ccc(-c2cnc(CNc3nc(N4CCOCC4)nc4c(C(F)(F)F)cnn34)[nH]2)cn1` [Example 21, N-{[5-(6-methoxypyridin-3-yl)-1H-imidazol-2-yl]methyl}-2-(morpholin-4-yl)-8-(trifluoromethyl)pyrazolo[1,5-a][1,3,5]triazin-4-amine], the IC50 in test [1] was 98.3 nM. For the same compound, the DC50 on CDK12 was more than 1000 nM.
As to `FC(F)(F)c1ccc(-c2cnc(CNc3nc(N4CCOCC4)nc4c(Br)cnn34)[nH]2)cc1` [Example 3, 8-bromo-2-(morpholin-4-yl)-N-({5-[4-(trifluoromethyl)phenyl]-1H-imidazol-2-yl}methyl)pyrazolo[1,5-a][1,3,5]triazin-4-amine], at CDK12/CyclinK, the IC50 came to 267 nM and the “(IC50 CDK12 high ATP) to (Degradation DC50 CDK12) ratio” value was less than 0.09. In addition, at CDK12, the DC50 was more than 2880 nM.
Consider `FC(F)(F)Oc1ccc(-c2nnc(CNc3nc(N4CCOCC4)nn4c(C(F)(F)F)cnc34)[nH]2)cc1` [Example 14, 2-(morpholin-4-yl)-N-({5-[4-(trifluoromethoxy)phenyl]-4H-1,2,4-triazol-3-yl}methyl)-7-(trifluoromethyl)imidazo[2,1-f][1,2,4]triazin-4-amine], for which the IC50 in test [1] was 319 nM. The DC50 on CDK12 is 665 nM.
Consider `FC(F)(F)Oc1ccc(-c2nnc(CNc3nc(N4CCOCC4)nn4c(C(F)(F)F)cnc34)[nH]2)cn1` [Example 19, 2-(morpholin-4-yl)-N-({5-[6-(trifluoromethoxy)pyridin-3-yl]-4H-1,2,4-triazol-3-yl}methyl)-7-(trifluoromethyl)imidazo[2,1-f][1,2,4]triazin-4-amine], for which the IC50 amounted to 4.14 nM on CDK12/CyclinK and 37.5 nM in test [1].
Turning to `FC(F)(F)c1ccc(-c2cnc(CNc3nc(N4CCOCC4)nc4c(C(F)(F)F)cnn34)[nH]2)cn1` [Example 24, 2-(morpholin-4-yl)-8-(trifluoromethyl)-N-({5-[6-(trifluoromethyl)pyridin-3-yl]-1H-imidazol-2-yl}methyl)pyrazolo[1,5-a][1,3,5]triazin-4-amine], in test [1], the IC50 was determined as 21.7 nM. Besides, the DC50 at CDK12 is more than 1000 nM.
Take `FC(F)(F)Oc1ccc(-c2nnc(CNc3nc(N4CCOCC4)nc4c(Br)cnn34)[nH]2)cc1` [Example 2, 8-bromo-2-(morpholin-4-yl)-N-({5-[4-(trifluoromethoxy)phenyl]-4H-1,2,4-triazol-3-yl}methyl)pyrazolo[1,5-a][1,3,5]triazin-4-amine]: on CDK12/CyclinK, the IC50 was determined as 750 nM and the “(IC50 CDK12 high ATP) to (Degradation DC50 CDK12) ratio” value is less than 0.27. At CDK12, the DC50 is more than 2790 nM.
